Test results published in PubChem BioAssay (NCI).
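Compound exposure: 48 hours, 5 concentrations, 96-well plates. TGI: concentration producing complete growth inhibition.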

Tests used:
Assay in all cases: inhibition of tumour cell growth, NCI panel, 48 h
HOP-92 NSCLC = test system: HOP-92 NSCLC
OVCAR-5 ovarian = test system: OVCAR-5 ovarian
M14 melanoma = test system: M14 melanoma
LOX IMVI melanoma = test system: LOX IMVI melanoma
HOP-62 NSCLC = test system: HOP-62 NSCLC
U251 CNS = test system: U251 CNS
NCI-H226 lung = test system: NCI-H226 lung
SNB-75 CNS = test system: SNB-75 CNS
EKVX NSCLC = test system: EKVX NSCLC
SR leukemia = test system: SR leukemia
TK-10 renal = test system: TK-10 renal
HCT-15 colon = test system: HCT-15 colon
NCI-H23 lung = test system: NCI-H23 lung
RPMI-8226 leukemia = test system: RPMI-8226 leukemia
HCT-116 colon = test system: HCT-116 colon
IGROV1 ovarian = test system: IGROV1 ovarian
HT29 colon = test system: HT29 colon
NCI-H460 lung = test system: NCI-H460 lung
SF-539 CNS = test system: SF-539 CNS
NCI/ADR-RES ovarian = test system: NCI/ADR-RES ovarian
SNB-19 CNS = test system: SNB-19 CNS
MDA-N = test system: MDA-N
HL-60(TB) leukemia = test system: HL-60(TB) leukemia
NCI-H522 lung = test system: NCI-H522 lung
OVCAR-8 ovarian = test system: OVCAR-8 ovarian
DU-145 prostate = test system: DU-145 prostate
SW-620 colon = test system: SW-620 colon
HS 578T breast = test system: HS 578T breast
SK-MEL-2 melanoma = test system: SK-MEL-2 melanoma
SK-MEL-28 melanoma = test system: SK-MEL-28 melanoma
SF-295 CNS = test system: SF-295 CNS
CCRF-CEM leukemia = test system: CCRF-CEM leukemia
KM12 colon = test system: KM12 colon
COLO 205 colon = test system: COLO 205 colon
MOLT-4 leukemia = test system: MOLT-4 leukemia
SK-OV-3 ovarian = test system: SK-OV-3 ovarian
SN12C renal = test system: SN12C renal
786-0 renal = test system: 786-0 renal
MCF7 breast = test system: MCF7 breast
HCC-2998 colon = test system: HCC-2998 colon
PC-3 prostate = test system: PC-3 prostate
UO-31 renal = test system: UO-31 renal
ACHN renal = test system: ACHN renal
OVCAR-4 ovarian = test system: OVCAR-4 ovarian
CAKI-1 renal = test system: CAKI-1 renal
UACC-257 melanoma = test system: UACC-257 melanoma
A549 NSCLC = test system: A549 NSCLC
UACC-62 melanoma = test system: UACC-62 melanoma
K-562 leukemia = test system: K-562 leukemia
OVCAR-3 ovarian = test system: OVCAR-3 ovarian
SF-268 CNS = test system: SF-268 CNS
MDA-MB-231 breast = test system: MDA-MB-231 breast
BT-549 breast = test system: BT-549 breast
MALME-3M melanoma = test system: MALME-3M melanoma
MDA-MB-435 = test system: MDA-MB-435
A498 renal = test system: A498 renal
SK-MEL-5 melanoma = test system: SK-MEL-5 melanoma
RXF 393 renal = test system: RXF 393 renal

Measured: TGI

Cc1cc(C)c2ccc(N3CCNCC3)nc2n1
not listed: A498 renal | SK-MEL-5 melanoma | RXF 393 renal
> 100 µM: all other assays above

C(=Nc1ccccc1C1SCCCS1)c1ccccc1
not listed: SR leukemia
> 100 µM: all other assays above
